Reference: patent publication US12103924B2, “Mitogen-activated protein kinase kinase (MEK) degradation compounds and methods of use” (Icahn School of Medicine at Mount Sinai, priority 2020, dated 2024)

These molecules were tested on HT-29 cells (assay: MTT cell viability assay, HT-29). Conditions: Homo sapiens, 72 h, MTT assay, 3 d treatment, serial dilutions.
Type: cell-based

**Q.** For `O=C1CCC(N2C(=O)c3cccc(NCCOCCOCCOCCOCCNCCCONC(=O)c4ccc(F)c(F)c4Nc4ccc(I)cc4F)c3C2=O)C(=O)N1` (stereo not drawn) [CPD-022, N-((1-((2-(2,6-dioxopiperidin-3-yl)-1,3-dioxoisoindolin-4-yl)amino)-3,6,9,12-tetraoxa-15-azaoctadecan-18-yl)oxy)-3,4-difluoro-2-((2-fluoro-4-iodophenyl)amino)benzamide], which GI50 is on record?
**A.** 0.6 ± 0.09 µM

**Q.** For `O=C1CCC(N2C(=O)c3ccc(NCCCCCCNCCCONC(=O)c4ccc(F)c(F)c4Nc4ccc(I)cc4F)cc3C2=O)C(=O)N1` (stereo not drawn) [CPD-044, N-(3-((6-((2-(2,6-dioxopiperidin-3-yl)-1,3-dioxoisoindolin-5-yl)amino)hexyl)amino)propoxy)-3,4-difluoro-2-((2-fluoro-4-iodophenyl)amino)benzamide], which GI50 is on record?
**A.** 1.1 ± 0.5 µM

**Q.** With `Cc1ncsc1-c1ccc([C@H](C)NC(=O)[C@@H]2C[C@@H](O)CN2C(=O)[C@@H](NC(=O)CCCCCCCCCNCCCCONC(=O)c2ccc(F)c(F)c2Nc2ccc(I)cc2F)C(C)(C)C)cc1` [CPD-035, (2S,4R)-1-((S)-20-(tert-butyl)-1-(3,4-difluoro-2-((2-fluoro-4-iodophenyl)amino)phenyl)-1,18-dioxo-3-oxa-2,8,19-triazahenicosan-21-oyl)-4-hydroxy-N—((S)-1-(4-(4-methylthiazol-5-yl)phenyl)ethyl)pyrrolidine-2-carboxamide] as the molecule, how does the GI50 read?
**A.** 0.055 ± 0.005 µM

**Q.** Which GI50 does the source give for `Cc1ncsc1-c1ccc(CNC(=O)[C@@H]2C[C@@H](O)CN2C(=O)[C@@H](NC(=O)CCCCCCCCCNCCCONC(=O)c2ccc(F)c(F)c2Nc2ccc(I)cc2F)C(C)(C)C)cc1` [CPD-013, (2S,4R)-1-((S)-19-(tert-butyl)-1-(3,4-difluoro-2-((2-fluoro-4-iodophenyl)amino)phenyl)-1,17-dioxo-3-oxa-2,7,18-triazaicosan-20-oyl)-4-hydroxy-N-(4-(4-methylthiazol-5-yl)benzyl)pyrrolidine-2-carboxamide] here?
**A.** 0.5 ± 0.03 µM

**Q.** For `O=C1CCC(N2C(=O)c3cccc(NCCCNCCCONC(=O)c4ccc(F)c(F)c4Nc4ccc(I)cc4F)c3C2=O)C(=O)N1` (stereo not drawn) [CPD-025, N-(3-((3-((2-(2,6-dioxopiperidin-3-yl)-1,3-dioxoisoindolin-4-yl)amino)propyl)amino)propoxy)-3,4-difluoro-2-((2-fluoro-4-iodophenyl)amino)benzamide], which GI50 is on record?
**A.** 1.1 ± 0.07 µM

**Q.** With `Cc1ncsc1-c1ccc([C@H](C)NC(=O)[C@@H]2C[C@@H](O)CN2C(=O)[C@@H](NC(=O)CCCCCCCCCNCCCONC(=O)c2ccc(F)c(F)c2Nc2ccc(I)cc2F)C(C)(C)C)cc1` [CPD-036, (2S,4R)-1-((S)-19-(tert-butyl)-1-(3,4-difluoro-2-((2-fluoro-4-iodophenyl)amino)phenyl)-1,17-dioxo-3-oxa-2,7,18-triazaicosan-20-oyl)-4-hydroxy-N—((S)-1-(4-(4-methylthiazol-5-yl)phenyl)ethyl)pyrrolidine-2-carboxamide] as the molecule, how does the GI50 read?
**A.** 0.24 ± 0.055 µM

**Q.** For `Cc1ncsc1-c1ccc([C@H](C)NC(=O)[C@@H]2C[C@@H](O)CN2C(=O)[C@@H](NC(=O)CCCCCCCCCCNCCCCONC(=O)c2ccc(F)c(F)c2Nc2ccc(I)cc2F)C(C)(C)C)cc1` [CPD-039, (2S,4R)-1-((S)-21-(tert-butyl)-1-(3,4-difluoro-2-((2-fluoro-4-iodophenyl)amino)phenyl)-1,19-dioxo-3-oxa-2,8,20-triazadocosan-22-oyl)-4-hydroxy-N—((S)-1-(4-(4-methylthiazol-5-yl)phenyl)ethyl)pyrrolidine-2-carboxamide], which GI50 is on record?
**A.** 0.043 ± 0.001 µM

**Q.** How did the GI50 turn out when `Cc1ncsc1-c1ccc(CNC(=O)[C@@H]2C[C@@H](O)CN2C(=O)[C@@H](NC(=O)CCCCCCCCNCCCONC(=O)c2ccc(F)c(F)c2Nc2ccc(I)cc2F)C(C)(C)C)cc1` [CPD-010, (2S,4R)-1-((S)-18-(tert-butyl)-1-(3,4-difluoro-2-((2-fluoro-4-iodophenyl)amino)phenyl)-1,16-dioxo-3-oxa-2,7,17-triazanonadecan-19-oyl)-4-hydroxy-N-(4-(4-methylthiazol-5-yl)benzyl)pyrrolidine-2-carboxamide] was run?
**A.** 0.6 ± 0.1 µM

**Q.** How did the GI50 turn out when `O=C1CCC(N2C(=O)c3cccc(NCCCCNCCCONC(=O)c4ccc(F)c(F)c4Nc4ccc(I)cc4F)c3C2=O)C(=O)N1` (stereo not drawn) [CPD-026, N-(3-((4-((2-(2,6-dioxopiperidin-3-yl)-1,3-dioxoisoindolin-4-yl)amino)butyl)amino)propoxy)-3,4-difluoro-2-((2-fluoro-4-iodophenyl)amino)benzamide] was run?
**A.** 1.9 ± 0.4 µM

**Q.** For `Cc1ncsc1-c1ccc(CNC(=O)[C@@H]2C[C@@H](O)CN2C(=O)[C@@H](NC(=O)CNCCCONC(=O)c2ccc(F)c(F)c2Nc2ccc(I)cc2F)C(C)(C)C)cc1` [CPD-005, (2S,4R)-1-((S)-11-(tert-Butyl)-1-(3,4-difluoro-2-((2-fluoro-4-iodophenyl)amino)phenyl)-1,9-dioxo-3-oxa-2,7,10-triazadodecan-12-oyl)-4-hydroxy-N-(4-(4-methylthiazol-5-yl)benzyl)pyrrolidine-2-carboxamide], which GI50 is on record?
**A.** 1.8 ± 0.4 µM

**Q.** `O=C1CCC(N2C(=O)c3cccc(NCCOCCOCCNCCCONC(=O)c4ccc(F)c(F)c4Nc4ccc(I)cc4F)c3C2=O)C(=O)N1` (stereo not drawn) [CPD-020, N-(3-((2-(2-(2-((2-(2,6-dioxopiperidin-3-yl)-1,3-dioxoisoindolin-4-yl)amino)ethoxy)ethoxy)ethyl)amino)propoxy)-3,4-difluoro-2-((2-fluoro-4-iodophenyl)amino)benzamide] was tested. Which GI50 did it give?
**A.** 1.3 ± 0.5 µM

**Q.** Which GI50 does the source give for `O=C1CCC(N2C(=O)c3cccc(NCCCCCCCNCCCONC(=O)c4ccc(F)c(F)c4Nc4ccc(I)cc4F)c3C2=O)C(=O)N1` (stereo not drawn) [CPD-029, N-(3-((7-((2-(2,6-dioxopiperidin-3-yl)-1,3-dioxoisoindolin-4-yl)amino)heptyl)amino)propoxy)-3,4-difluoro-2-((2-fluoro-4-iodophenyl)amino)benzamide] here?
**A.** 4.5 ± 1.9 µM

**Q.** For `Cc1ncsc1-c1ccc(CNC(=O)[C@@H]2C[C@@H](O)CN2C(=O)[C@@H](NC(=O)COCCOCCNCCCONC(=O)c2ccc(F)c(F)c2Nc2ccc(I)cc2F)C(C)(C)C)cc1` [CPD-012, (2S,4R)-1-((S)-17-(tert-butyl)-1-(3,4-difluoro-2-((2-fluoro-4-iodophenyl)amino)phenyl)-1,15-dioxo-3,10,13-trioxa-2,7,16-triazaoctadecan-18-oyl)-4-hydroxy-N-(4-(4-methylthiazol-5-yl)benzyl)pyrrolidine-2-carboxamide], which GI50 is on record?
**A.** 1.6 ± 0.3 µM

**Q.** `Cc1ncsc1-c1ccc(CNC(=O)[C@@H]2C[C@@H](O)CN2C(=O)[C@@H](NC(=O)CCNCCCONC(=O)c2ccc(F)c(F)c2Nc2ccc(I)cc2F)C(C)(C)C)cc1` [CPD-006, (2S,4R)-1-((S)-12-(tert-Butyl)-1-(3,4-difluoro-2-((2-fluoro-4-iodophenyl)amino)phenyl)-1,10-dioxo-3-oxa-2,7,11-triazatridecan-13-oyl)-4-hydroxy-N-(4-(4-methylthiazol-5-yl)benzyl)pyrrolidine-2-carboxamide] was tested. Which GI50 did it give?
**A.** 5 ± 1.1 µM

**Q.** How did the GI50 turn out when `Cc1ncsc1-c1ccc(CNC(=O)[C@@H]2C[C@@H](O)CN2C(=O)[C@@H](NC(=O)COCCNCCCONC(=O)c2ccc(F)c(F)c2Nc2ccc(I)cc2F)C(C)(C)C)cc1` [CPD-002, (2S,4R)-1-((S)-14-(tert-Butyl)-1-(3,4-difluoro-2-((2-fluoro-4-iodophenyl)amino)phenyl)-1,12-dioxo-3,10-dioxa-2,7,13-triazapentadecan-15-oyl)-4-hydroxy-N-(4-(4-methylthiazol-5-yl)benzyl)pyrrolidine-2-carboxamide] was run?
**A.** 4 ± 0.2 µM
